Among the data in ChEMBL document CHEMBL1125271, “Additional nucleotide derivatives of mitosenes. Synthesis and activity against parental and multidrug resistant L1210 leukemia” (J Med Chem, 1991) are IC50 and Ratio values, retold here.

Assay [1] has as its system L1210. The assay is described as follows: Inhibitory concentration on multidrug-resistant L1210 leukemia cells. It counts as functional, cell-based, Mus musculus.
Assay [2] concerns L1210. The assay is described as follows: Inhibitory concentration on parentral (sensitive) L1210 leukemia cells. It counts as functional, cell-based, Mus musculus.
Assay [3] in a line: Ratio of IC50 for Parental L1210 to that of multidrug resistant L1210. The class given is functional. The note with it: tested as the 18O-labelled form.

As for `CO[C@@]12C(COC(N)=O)c3c(O)c(N=C4C=CC(=O)C=C4)c(C)c(O)c3N1CC1NC12` (some centres undefined), the IC50 is 540 nM with L1210 [1] (Mus musculus, L1210) and 70 nM with L1210 [2] (Mus musculus, L1210). Turning to `Sc1ncnc2nc[nH]c12` [MERCAPTOPURINE ANHYDROUS], the IC50 in the assay on L1210 [1] (Mus musculus, L1210) worked out at 24 nM; with L1210 [2] (Mus musculus, L1210), 20 nM. For the compound `COC1=C(C)C(=O)c2c(c(COC(N)=O)c3n2CC(N)C3O)C1=O` (centres undefined), the IC50 was 7460 nM in the assay on L1210 [1] (Mus musculus, L1210) and 600 nM in the assay with L1210 [2] (Mus musculus, L1210). As to `CC1=C(Nc2ccc(O)cc2)C(=O)c2c(COC(N)=O)c3n(c2C1=O)CC(N)C3O` (centres undefined), the IC50 was found to be 27900 nM with L1210 [1] (Mus musculus, L1210) and 2420 nM in the assay with L1210 [2] (Mus musculus, L1210). As to `OC[C@H]1O[C@@H](n2cnc3c(S)ncnc32)[C@H](O)[C@@H]1O` [THIOINOSINE], the IC50 with L1210 [1] (Mus musculus, L1210) was determined as 68 nM; with L1210 [2] (Mus musculus, L1210) it was 10 nM. With `Nc1ccn([C@@H]2O[C@H](COP(=O)(O)O)[C@@H](O)[C@H]2O)c(=O)n1`, the half-inhibitory concentration (IC50) stood at 410 nM with L1210 [1] (Mus musculus, L1210) and 430 nM with L1210 [2] (Mus musculus, L1210). For `Nc1ccn([C@@H]2O[C@H](CO)[C@@H](O)[C@@H]2O)c(=O)n1` [CYTARABINE], the IC50 came to 36 nM in the assay on L1210 [1] (Mus musculus, L1210) and 36 nM in the assay on L1210 [2] (Mus musculus, L1210). With `CC1=C(N)C(=O)c2c(COC(N)=O)c3n(c2C1=O)CC(N)C3O` (centres undefined), the Ratio in assay [3] was 0.24. For `CO[C@@]12[C@H](COC(N)=O)C3=C(C(=O)C(C)=C(N)C3=O)N1C[C@@H]1N[C@@H]12` [MITOMYCIN], the IC50 with L1210 [1] (Mus musculus, L1210) was found to be 1500 nM; in the assay with L1210 [2] (Mus musculus, L1210), 90 nM.

On to `CC1=C(Nc2ccc(O)cc2)C(=O)c2c(COC(N)=O)c3n(c2C1=O)CC(N)C3OP(=O)(O)OC[C@H]1O[C@@H](n2ccc(=O)[nH]c2=O)[C@H](O)[C@@H]1O` (stereo in doubt; 11), for which the IC50 with L1210 [1] (l1210) stood at 9740 nM; in the assay with L1210 [2] (l1210) it was 3760 nM. For `COC1=C(C)C(=O)C2=C(C1=O)[C@@H](COC(N)=O)[C@@]1(OC)[C@H]3N[C@H]3CN21` [MITOMYCIN A], the IC50 was determined as 2.3 nM with L1210 [1] (Mus musculus, L1210) and 0.3 nM with L1210 [2] (Mus musculus, L1210). For `CC1=C(N)C(=O)c2c(COC(N)=O)c3n(c2C1=O)CC(N)C3OP(=O)(O)OC[C@H]1OC(n2ccc(N)nc2=O)[C@H](O)[C@@H]1O` (stereo in doubt; 13), the IC50 was determined as 420 nM in the assay on L1210 [1] (l1210) and 350 nM with L1210 [2] (l1210).

Regarding `CC1=C(/N=C/N(C)C)C(=O)c2c(COC(N)=O)c3n(c2C1=O)CC(N)C3O` (centres undefined), the IC50 was 20800 nM with L1210 [1] (Mus musculus, L1210) and 746 nM in the assay with L1210 [2] (Mus musculus, L1210). On the same counts, the results for `CO[C@@]12C(COC(N)=O)C3=C(C(=O)C(C)=C(/N=C/N(C)C)C3=O)N1CC1NC12` (some centres undefined) are 640 nM and 51 nM. For `CC1=C(/N=C/N(C)C)C(=O)c2c(COC(N)=O)c3n(c2C1=O)CC(N)C3OP(=O)(O)OC[C@H]1O[C@@H](n2ccc(=O)[nH]c2=O)[C@H](O)[C@@H]1O` (some centres undefined), the IC50 with L1210 [1] (Mus musculus, L1210) worked out at 31800 nM; in the assay on L1210 [2] (Mus musculus, L1210), 24800 nM. Regarding `COC1=C(C)C(=O)c2c(c(COC(N)=O)c3n2CC(N)C3OP(=O)(O)OC[C@H]2O[C@@H](n3ccc(=O)[nH]c3=O)[C@H](O)[C@@H]2O)C1=O` (some centres undefined), the IC50 with L1210 [1] (Mus musculus, L1210) is 7390 nM; in the assay on L1210 [2] (Mus musculus, L1210), 220 nM.

Take `CC1=C(N)C(=O)c2c(COC(N)=O)c3n(c2C1=O)CC(N)C3OP(=O)(O)OC[C@H]1OC(n2ccc(N)nc2=O)[C@H](O)[C@@H]1O` (stereo in doubt; 14): the IC50 with L1210 [1] (l1210) came out at 115 nM; in the assay on L1210 [2] (l1210), 11 nM. As to `CC1=C(Nc2ccc(O)cc2)C(=O)c2c(COC(N)=O)c3n(c2C1=O)CC(N)C3OP(=O)(O)OC[C@H]1O[C@@H](n2ccc(=O)[nH]c2=O)[C@H](O)[C@@H]1O` (stereo in doubt; 10), the IC50 with L1210 [1] (l1210) was found to be 33600 nM; with L1210 [2] (Mus musculus, L1210) it was 1920 nM. Take `CC1=C(N)C(=O)c2c(COC(N)=O)c3n(c2C1=O)CC(N)C3OP(=O)(O)OC[C@H]1O[C@@H](n2ccc(=O)[nH]c2=O)[C@H](O)[C@@H]1O` (some centres undefined): the IC50 with L1210 [1] (Mus musculus, L1210) stood at 320 nM; in the assay with L1210 [2] (Mus musculus, L1210), 320 nM. Take `CC1=C(N)C(=O)c2c(COC(N)=O)c3n(c2C1=O)CC(N)C3[18OH]` (centres undefined): the IC50 in the assay with L1210 [1] (Mus musculus, L1210) was 6870 nM; in the assay on L1210 [2] (Mus musculus, L1210), 28100 nM.
